Measured values reported in patent publication US20110015119A1, “NOVEL SEMI-SYNTHETIC GLYCOPEPTIDES AS ANTIBACTERIAL AGENTS” (LEAD THERAPEUTICS, INC., priority 2009, published 2011).
Converted amounts (≈) assume the structure as drawn.

What was measured:
Type in all cases: cell-based
[1] = test system: Enterococcus faecium 752 (VRE, Van A); assay: MIC by broth microdilution, EFcm 752; conditions: Enterococcus faecium, VRE, read-out: MIC E FCM 752, Enterococcus faecium 752 (VRE, Van A); class symbols
Method: (§1) Antibacterial activity in vitro is investigated by broth microdilution method in Meuller-Hinton broth as recommended by NCCLS. All strains tested are clinical isolates either sensitive or resistant to natural glycopeptides. MIC values were determined using the CLSI-recommended broth microdilution procedure (Clinical and Laboratory Standards Institute, Methods for Dilution Antimicrobial Susceptibility Tests for Bacteria That Grow Aerobically; Approved Standard-Seventh Edition.). Automated liquid handlers (Multidrop 384, Labsystems, Helsinki, Finland; Biomek 2000 and Multimek 96, Beckman Coulter, Fullerton Calif.) were used to conduct serial dilutions and liquid transfers. The MIC value for vancomycin is given for comparison. The abbreviations for organisms tested are as follow: SA 100—Staphylococcus aureus 100 (ATCC 29213); SA 757—Staphylococcus aureus 757 (MRSA); SA 2012—Staphylococcus aureus 2012 (VISA); SE 835—Staphylococcus epidermidis 835; SE 831—Staphylococcus epidermidis 831 (MRSE); EFc 101—Enterococcus faecalis 101 (ATCC 29212); EFc 848—Enterococcus faecalis 848 (VRE, Van A); EFcm 800—Enterococcus faecium 800; EFcm 752—Enterococcus faecium 752 (VRE, Van A); SPNE 1195—Streptococcus pneumoniae 1195 (ATCC 49619); SPY 712—Streptococcus pyogenes 712.

[2] = test system: Streptococcus pneumoniae 1195 (ATCC 49619); assay: MIC by broth microdilution, SPNE 1195; conditions: Streptococcus pneumoniae, ATCC49619, read-out: MIC S PNE 1195
Method: as §1

[3] = test system: Streptococcus pyogenes 712; assay: MIC by broth microdilution, SPY 712; conditions: Streptococcus pyogenes, 712, read-out: MIC S PYO 712
Method: as §1

[4] = test system: Staphylococcus aureus 757 (MRSA); assay: MIC by broth microdilution, SA 757; conditions: Staphylococcus aureus, MRSA, read-out: MIC SA 757
Method: as §1

Enterococcus faecium 800 = assay: MIC by broth microdilution, EFcm 800; conditions: Enterococcus faecium, 800, read-out: MIC E FCM 800
Method: as §1

[5] = test system: Staphylococcus aureus 100 (ATCC 29213); assay: MIC by broth microdilution, SA 100; conditions: Staphylococcus aureus, ATCC29213, read-out: MIC SA 100
Method: as §1

[6] = test system: Staphylococcus epidermidis 835; assay: MIC by broth microdilution, SE 835; conditions: Staphylococcus epidermidis, 835, read-out: MIC SE 835
Method: as §1

[7] = test system: Enterococcus faecalis 101 (ATCC 29212); assay: MIC by broth microdilution, EFc 101; conditions: Enterococcus faecalis, ATCC29212, read-out: MIC E FC 101, Enterococcus faecalis 101 (ATCC 29212); class symbols
Method: as §1

[8] = test system: Enterococcus faecalis 848 (VRE, Van A); assay: MIC by broth microdilution, EFc 848; conditions: Enterococcus faecalis, VRE, read-out: MIC E FC 848, Enterococcus faecalis 848 (VRE, Van A); class symbols
Method: as §1

[9] = test system: Staphylococcus epidermidis 831 (MRSE); assay: MIC by broth microdilution, SE 831; conditions: Staphylococcus epidermidis, MRSE, read-out: MIC SE 831
Method: as §1

[10] = test system: Staphylococcus aureus 2012 (VISA); assay: MIC by broth microdilution, SA 2012; conditions: Staphylococcus aureus, VISA, read-out: MIC SA 2012, Staphylococcus aureus 2012 (VISA); class symbols
Method: as §1

| Compound | MIC [1] | MIC [2] | MIC [3] | MIC [4] | MIC (Enterococcus faecium 800) | MIC [5] | MIC [6] | MIC [7] | MIC [8] | MIC [9] | MIC [10] |
| --- | --- | --- | --- | --- | --- | --- | --- | --- | --- | --- | --- |
| CCCCOc1ccc(CCNC(=O)Oc2cc(O)c3c(c2)[C@@H](C(=O)O)NC(=O)[C@H]2NC(=O)[C@H](NC(=O)[C@@H]4NC(=O)[C@H](CC(N)=O)NC(=O)[C@H](NC(=O)[C@@H](CC(C)C)NC)[C@H](O)c5ccc(c(Cl)c5)Oc5cc4cc(c5O[C@@H]4O[C@H](CO)[C@@H](O)[C@H](O)[C@H]4O[C@H]4C[C@](C)(N)[C@H](O)[C@H](C)O4)Oc4ccc(cc4Cl)[C@H]2O)c2ccc(O)c-3c2)cc1 (atropisomer, axis not shown) [Compound 351] | 8 to 16 µg/mL (≈ 4.79 to 9.59 µM) | 0.01 to 0.5 µg/mL (≈ 0.00599 to 0.3 µM) | 0.01 to 0.5 µg/mL (≈ 0.00599 to 0.3 µM) | 0.01 to 0.5 µg/mL (≈ 0.00599 to 0.3 µM) | 0.01 to 0.5 µg/mL (≈ 0.00599 to 0.3 µM) | 0.01 to 0.5 µg/mL (≈ 0.00599 to 0.3 µM) | 0.5 to 1 µg/mL (≈ 0.3 to 0.599 µM) | 0.5 to 1 µg/mL (≈ 0.3 to 0.599 µM) | > 16 µg/mL | 0.5 to 1 µg/mL (≈ 0.3 to 0.599 µM) | 4 to 8 µg/mL (≈ 2.4 to 4.79 µM) |
| CCCCCCc1ccc(S(=O)(=O)NCCCCCCNC(=O)Oc2cc(O)c3c(c2)[C@@H](C(=O)O)NC(=O)[C@H]2NC(=O)[C@H](NC(=O)[C@@H]4NC(=O)[C@H](CC(N)=O)NC(=O)[C@H](NC(=O)[C@@H](CC(C)C)NC)[C@H](O)c5ccc(c(Cl)c5)Oc5cc4cc(c5O[C@@H]4O[C@H](CO)[C@@H](O)[C@H](O)[C@H]4O[C@H]4C[C@](C)(N)[C@H](O)[C@H](C)O4)Oc4ccc(cc4Cl)[C@H]2O)c2ccc(O)c-3c2)cc1 (atropisomer, axis not shown) [Compound 352] | 0.5 to 1 µg/mL (≈ 0.275 to 0.551 µM) | 0.01 to 0.5 µg/mL (≈ 0.00551 to 0.275 µM) | 0.01 to 0.5 µg/mL (≈ 0.00551 to 0.275 µM) | 0.01 to 0.5 µg/mL (≈ 0.00551 to 0.275 µM) | 0.01 to 0.5 µg/mL (≈ 0.00551 to 0.275 µM) | 0.01 to 0.5 µg/mL (≈ 0.00551 to 0.275 µM) | 0.01 to 0.5 µg/mL (≈ 0.00551 to 0.275 µM) | 0.01 to 0.5 µg/mL (≈ 0.00551 to 0.275 µM) | 2 to 4 µg/mL (≈ 1.1 to 2.2 µM) | 0.01 to 0.5 µg/mL (≈ 0.00551 to 0.275 µM) | 0.01 to 0.5 µg/mL (≈ 0.00551 to 0.275 µM) |
| CCOCCOCCNC(=O)Oc1cc(O)c2c(c1)[C@@H](C(=O)O)NC(=O)[C@H]1NC(=O)[C@H](NC(=O)[C@@H]3NC(=O)[C@H](CC(N)=O)NC(=O)[C@H](NC(=O)[C@@H](CC(C)C)NC)[C@H](O)c4ccc(c(Cl)c4)Oc4cc3cc(c4O[C@@H]3O[C@H](CO)[C@@H](O)[C@H](O)[C@H]3O[C@H]3C[C@](C)(N)[C@H](O)[C@H](C)O3)Oc3ccc(cc3Cl)[C@H]1O)c1ccc(O)c-2c1 (atropisomer, axis not shown) [Compound 353] | > 16 µg/mL | 0.01 to 0.5 µg/mL (≈ 0.00622 to 0.311 µM) | 1 to 2 µg/mL (≈ 0.622 to 1.24 µM) | 4 to 8 µg/mL (≈ 2.49 to 4.97 µM) | 2 to 4 µg/mL (≈ 1.24 to 2.49 µM) | 4 to 8 µg/mL (≈ 2.49 to 4.97 µM) | 8 to 16 µg/mL (≈ 4.97 to 9.95 µM) | 4 to 8 µg/mL (≈ 2.49 to 4.97 µM) | > 16 µg/mL | 4 to 8 µg/mL (≈ 2.49 to 4.97 µM) | > 16 µg/mL |
| CCCCCCc1ccc(NC(=O)NCCCCCCNC(=O)Oc2cc(O)c3c(c2)[C@@H](C(=O)O)NC(=O)[C@H]2NC(=O)[C@H](NC(=O)[C@@H]4NC(=O)[C@H](CC(N)=O)NC(=O)[C@H](NC(=O)[C@@H](CC(C)C)NC)[C@H](O)c5ccc(c(Cl)c5)Oc5cc4cc(c5O[C@@H]4O[C@H](CO)[C@@H](O)[C@H](O)[C@H]4O[C@H]4C[C@](C)(N)[C@H](O)[C@H](C)O4)Oc4ccc(cc4Cl)[C@H]2O)c2ccc(O)c-3c2)cc1 (atropisomer, axis not shown) [Compound 354] | 0.01 to 0.5 µg/mL (≈ 0.00557 to 0.279 µM) | 0.01 to 0.5 µg/mL (≈ 0.00557 to 0.279 µM) | 0.01 to 0.5 µg/mL (≈ 0.00557 to 0.279 µM) | 0.01 to 0.5 µg/mL (≈ 0.00557 to 0.279 µM) | 0.01 to 0.5 µg/mL (≈ 0.00557 to 0.279 µM) | 0.01 to 0.5 µg/mL (≈ 0.00557 to 0.279 µM) | 0.01 to 0.5 µg/mL (≈ 0.00557 to 0.279 µM) | 0.01 to 0.5 µg/mL (≈ 0.00557 to 0.279 µM) | 2 to 4 µg/mL (≈ 1.11 to 2.23 µM) | 0.01 to 0.5 µg/mL (≈ 0.00557 to 0.279 µM) | 0.5 to 1 µg/mL (≈ 0.279 to 0.557 µM) |
| CCCCCCCOc1ccc(S(=O)(=O)NCCCCCCNC(=O)Oc2cc(O)c3c(c2)[C@@H](C(=O)O)NC(=O)[C@H]2NC(=O)[C@H](NC(=O)[C@@H]4NC(=O)[C@H](CC(N)=O)NC(=O)[C@H](NC(=O)[C@@H](CC(C)C)NC)[C@H](O)c5ccc(c(Cl)c5)Oc5cc4cc(c5O[C@@H]4O[C@H](CO)[C@@H](O)[C@H](O)[C@H]4O[C@H]4C[C@](C)(N)[C@H](O)[C@H](C)O4)Oc4ccc(cc4Cl)[C@H]2O)c2ccc(O)c-3c2)cc1 (atropisomer, axis not shown) [Compound 355] | 0.01 to 0.5 µg/mL (≈ 0.00542 to 0.271 µM) | 0.01 to 0.5 µg/mL (≈ 0.00542 to 0.271 µM) | 0.01 to 0.5 µg/mL (≈ 0.00542 to 0.271 µM) | 0.01 to 0.5 µg/mL (≈ 0.00542 to 0.271 µM) | 0.01 to 0.5 µg/mL (≈ 0.00542 to 0.271 µM) | 0.01 to 0.5 µg/mL (≈ 0.00542 to 0.271 µM) | 0.01 to 0.5 µg/mL (≈ 0.00542 to 0.271 µM) | 0.01 to 0.5 µg/mL (≈ 0.00542 to 0.271 µM) | 1 to 2 µg/mL (≈ 0.542 to 1.08 µM) | 0.01 to 0.5 µg/mL (≈ 0.00542 to 0.271 µM) | 0.5 to 1 µg/mL (≈ 0.271 to 0.542 µM) |
